IC50 data for 21 molecules are collected here from patent US9822124B2, “Bicyclic heteroaromatic carboxamide compounds useful as Pim kinase inhibitors” (Incyte Corporation, priority 2014, dated 2017).

What all share (type): biochemical
One assay addresses Pim-3 (Homo sapiens (Human), UniProt Q86V86). The assay can be described thus: Pim-3 kinase assay (AlphaScreen, Biotin-labeled BAD peptide substrate). The following applies: 1 mM ATP; read-out: Pim3 IC50. The method, then:
(§1) Pim-1 and Pim-3 kinase assays—20 μL reactions were run in white 384 well polystyrene plates dotted with 0.8 μL compound/DMSO in the assay buffer (50 mM Tris, pH 7.5, 0.01% Tween-20, 5 mM MgCl2, 0.01% BSA, 5 mM DTT), containing 0.05 μM Biotin-labeled BAD peptide substrate (AnaSpec 62269), 1 mM ATP, and […] (Pim-1, Invitrogen PV3503) or […] (Pim-3, Millipore 14-738) enzyme for 1 h at 25° C. Reactions were stopped by addition of 10 μL STOP Buffer (150 mM Tris, pH=7.5, 150 mM NaCl, 75 mM EDTA, 0.01% Tween-20, 0.3% BSA) supplemented with Phospho-Bad (Ser112) Antibody (Cell Signaling 9291) diluted 666-fold, and Streptavidin donor beads (PerkinElmer 6760002) along with Protein-A acceptor beads (PerkinElmer 6760137) at 15 μg/mL each. Supplementation of the STOP buffer with beads and stopping the reactions were done under reduced light. Prior to the stopping reactions STOP buffer with beads was preincubated for 1 h in the dark at room temperature. After stopping the reactions, plates were incubated for 1 h in the dark at room temperature before reading on a PHERAstar FS plate reader (BMG Labtech) under reduced light.
For orientation: Bead proximity is the source of the signal in Alpha formats.

Another assay deals with Pim-1 (Homo sapiens (Human), UniProt P11309). Kind of assay: Pim-1 kinase assay (AlphaScreen, Biotin-labeled BAD peptide substrate). The following applies: 1 mM ATP; read-out: Pim1 IC50. The method, then: as §1
Sequence of Pim-1 (P11309 whole entry): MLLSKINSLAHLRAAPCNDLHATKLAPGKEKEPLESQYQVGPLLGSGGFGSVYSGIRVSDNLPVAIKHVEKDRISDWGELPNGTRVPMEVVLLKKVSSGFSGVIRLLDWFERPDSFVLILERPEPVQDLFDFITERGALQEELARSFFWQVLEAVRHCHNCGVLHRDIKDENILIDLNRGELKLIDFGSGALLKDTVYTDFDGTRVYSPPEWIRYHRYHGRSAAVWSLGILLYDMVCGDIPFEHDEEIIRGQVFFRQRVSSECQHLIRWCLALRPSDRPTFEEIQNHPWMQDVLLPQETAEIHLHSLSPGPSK
In another assay the target is Pim-2 (Homo sapiens (Human), UniProt Q9P1W9). The assay can be described thus: Pim-2 kinase assay (TR-FRET, Fluorescein-labeled CREBtide peptide substrate). The following applies: 1 mM ATP; read-out: Pim2 IC50. As for the experimental part:
Pim-2 kinase assay—20 μL reactions were run in white 384 well polystyrene plates dotted with 0.8 μL compound/DMSO in the assay buffer (50 mM Tris, pH 7.5, 0.01% Tween-20, 5 mM MgCl2, 0.01% BSA, 5 mM DTT), containing 0.05 μM Fluorescein-labeled CREBtide peptide substrate (Invitrogen PV3508), 1 mM ATP, and 1 nM enzyme (Invitrogen PV3649) for 2 h at 25° C. Reactions were stopped by addition of 10 μL TR-FRET Dilution Buffer (Invitrogen PV3574) with 30 mM EDTA and 1.5 nM LanthaScreen Tb-CREB pSer133 antibody (Invitrogen PV3566). After 30 min. incubation at room temperature, plates were read on a PHERAstar FS plate reader (BMG Labtech).

Sequence of Pim-2 (Q9P1W9 whole entry): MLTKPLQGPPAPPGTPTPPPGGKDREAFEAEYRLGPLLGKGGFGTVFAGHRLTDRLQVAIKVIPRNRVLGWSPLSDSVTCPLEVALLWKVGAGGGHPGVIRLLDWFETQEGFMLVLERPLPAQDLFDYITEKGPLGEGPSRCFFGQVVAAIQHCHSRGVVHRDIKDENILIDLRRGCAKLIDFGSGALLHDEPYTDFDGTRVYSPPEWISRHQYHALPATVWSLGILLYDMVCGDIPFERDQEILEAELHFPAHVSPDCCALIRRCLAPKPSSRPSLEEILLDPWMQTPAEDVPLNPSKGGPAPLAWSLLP

Turning to `C[C@H]1CN(c2ccncc2NC(=O)c2ccc3oc(-c4ccc(N5CCOCC5)nc4)cc3n2)C[C@@H](N)[C@@H]1O` [Example 9, N-(4-((3R,4R,5S)-3-Amino-4-hydroxy-5-methylpiperidin-1-yl)pyridin-3-yl)-2-(6-morpholinopyridin-3-yl)furo[3,2-b]pyridine-5-carboxamide], the 50% inhibitory concentration (IC50) at Pim-3 is at most 10 nM; on Pim-1, at most 10 nM; at Pim-2, 1000 to 10000 nM.

Take `C[C@@H]1C[C@H](N)CN(c2ccncc2NC(=O)c2ccc3sc(Cc4ccccc4)cc3n2)C1` [Example 54, N-(4-((3S,5R)-3-Amino-5-methylpiperidin-1-yl)pyridin-3-yl)-2-benzylthieno[3,2-b]pyridine-5-carboxamide]: the values for the concentration for half-maximal inhibition (IC50) on Pim-3, on Pim-1 and at Pim-2 were at most 10 nM, at most 10 nM and 100 to 1000 nM, respectively.

As to `COc1ccc(-c2cc3nc(C(=O)Nc4cnccc4N4C[C@@H](N)[C@H](O)[C@@H](C)C4)ccc3s2)cn1` [Example 43, N-(4-((3R,4R,5S)-3-Amino-4-hydroxy-5-methylpiperidin-1-yl)pyridin-3-yl)-2-(6-methoxypyridin-3-yl)thieno[3,2-b]pyridine-5-carboxamide], the IC50 on Pim-3 was at most 10 nM; on Pim-1, at most 10 nM; at Pim-2, 100 to 1000 nM.

For the molecule `COc1ccc(-c2coc3ccc(C(=O)Nc4cnccc4N4C[C@H](C)C[C@H](N)C4)nc23)cn1` [Example 23, N-(4-((3S,5R)-3-Amino-5-methylpiperidin-1-yl)pyridin-3-yl)-3-(6-methoxypyridin-3-yl)furo[3,2-b]pyridine-5-carboxamide], the IC50 is 10 to 50 nM on Pim-3, at most 10 nM on Pim-1 and 1000 to 10000 nM on Pim-2.

As to `CCCc1cc2nc(C(=O)Nc3cnccc3N3C[C@H](C)C[C@H](N)C3)ccc2o1` [Example 1, N-(4-((3S,5R)-3-Amino-5-methylpiperidin-1-yl)pyridin-3-yl)-2-propylfuro[3,2-b]pyridine-5-carboxamide], the IC50 is at most 10 nM at Pim-3, at most 10 nM on Pim-1 and 100 to 1000 nM on Pim-2.

Regarding `CCc1coc2ccc(C(=O)Nc3cnccc3N3C[C@@H](N)[C@H](O)[C@@H](C)C3)nc12` [Example 15, N-(4-((3R,4R,5S)-3-Amino-4-hydroxy-5-methylpiperidin-1-yl)pyridin-3-yl)-3-ethylfuro[3,2-b]pyridine-5-carboxamide], the IC50 is at most 10 nM at Pim-3, at most 10 nM on Pim-1 and at most 100 nM at Pim-2.

Turning to `C[C@@H]1C[C@H](N)CN(c2ccncc2NC(=O)c2ccc3sc(-c4cnn(C)c4)cc3n2)C1` [Example 60, N-(4-((3S,5R)-3-Amino-5-methylpiperidin-1-yl)pyridin-3-yl)-2-(1-methyl-1H-pyrazol-4-yl)thieno[3,2-b]pyridine-5-carboxamide], the IC50 on Pim-3 was at most 10 nM; at Pim-1, at most 10 nM; at Pim-2, at most 100 nM.

Regarding `COc1ccc(F)c(-c2csc3ccc(C(=O)Nc4cnccc4N4C[C@H](C)C[C@H](N)C4)nc23)c1F` [Example 64, N-(4-((3S,5R)-3-Amino-5-methylpiperidin-1-yl)pyridin-3-yl)-3-(2,6-difluoro-3-methoxyphenyl)thieno[3,2-b]pyridine-5-carboxamide], the IC50 on Pim-3 is 10 to 50 nM; at Pim-1 it was at most 10 nM; on Pim-2, 100 to 1000 nM.

Take `COc1ccc(-c2cc3nc(C(=O)Nc4cnccc4N4C[C@H](C)C[C@H](N)C4)ccc3o2)cn1` [Example 3, N-(4-((3S,5R)-3-Amino-5-methylpiperidin-1-yl)pyridin-3-yl)-2-(6-methoxypyridin-3-yl)furo[3,2-b]pyridine-5-carboxamide]: the IC50 at Pim-3 was at most 10 nM; on Pim-1, at most 10 nM; on Pim-2 it was above 2000 nM.

Take `C[C@@H]1C[C@H](N)C[C@H](c2ccncc2NC(=O)c2ccn3ncc(-c4c(F)cc(CO)cc4F)c3n2)C1` [Example 81, N-{4-[(1R,3S,5S)-3-Amino-5-methylcyclohexyl]pyridin-3-yl}-3-[2,6-difluoro-4-(hydroxymethyl)phenyl]pyrazolo[1,5-a]pyrimidine-5-carboxamide]: the values for the IC50 at Pim-3, on Pim-1 and at Pim-2 were at most 10 nM, at most 10 nM and at most 100 nM, respectively.

In the case of `C[C@H]1CN(c2ccncc2NC(=O)c2ccc3occ(-c4c(F)cccc4F)c3n2)C[C@@H](N)[C@@H]1O` [Example 11, N-(4-((3R,4R,5S)-3-Amino-4-hydroxy-5-methylpiperidin-1-yl)pyridin-3-yl)-3-(2,6-difluorophenyl)furo[3,2-b]pyridine-5-carboxamide], the IC50 at Pim-3 was at most 10 nM; at Pim-1, at most 10 nM; on Pim-2, at most 100 nM.

With `C[C@@H]1C[C@H](N)CN(c2ccncc2NC(=O)c2ccc3oc(-c4ccc(N5CCOCC5)nc4)cc3n2)C1` [Example 5, N-(4-((3S,5R)-3-Amino-5-methylpiperidin-1-yl)pyridin-3-yl)-2-(6-morpholinopyridin-3-yl)furo[3,2-b]pyridine-5-carboxamide], the IC50 at Pim-3 was at most 10 nM; on Pim-1 it was at most 10 nM; on Pim-2 it was 1000 to 10000 nM.

Consider `N[C@H]1CCCN(c2ccncc2NC(=O)c2ccc3occ(-c4c(F)cccc4F)c3n2)C1` [Example 37, (S)-N-(4-(3-Aminopiperidin-1-yl)pyridin-3-yl)-3-(2,6-difluorophenyl)furo[3,2-b]pyridine-5-carboxamide], for which the IC50 was at most 10 nM at Pim-3, at most 10 nM at Pim-1 and at most 100 nM at Pim-2.

As for `COc1ccc(F)c(-c2coc3ccc(C(=O)Nc4cnccc4N4C[C@H](C)C[C@H](N)C4)nc23)c1F` [Example 22, N-(4-((3S,5R)-3-Amino-5-methylpiperidin-1-yl)pyridin-3-yl)-3-(2,6-difluoro-3-methoxyphenyl)furo[3,2-b]pyridine-5-carboxamide], the 50% inhibitory concentration (IC50) at Pim-3 was at most 10 nM; at Pim-1, at most 10 nM; on Pim-2 it was at most 100 nM.

As for `CC(C)c1cc2nc(C(=O)Nc3cnccc3N3C[C@@H](N)[C@H](O)[C@@H](C)C3)ccc2o1` [Example 6, N-{4-[(3R,4R,5S)-3-Amino-4-hydroxy-5-methylpiperidin-1-yl]pyridin-3-yl}-2-isopropylfuro[3,2-b]pyridine-5-carboxamide], the IC50 on Pim-3 was at most 10 nM; on Pim-1 it was 10 to 50 nM; at Pim-2 it was 100 to 1000 nM.

Take `C[C@@H]1C[C@H](N)CN(c2ccncc2NC(=O)c2ccc3occ(C4CCN(C)CC4)c3n2)C1` [Example 24, N-(4-((3S,5R)-3-Amino-5-methylpiperidin-1-yl)pyridin-3-yl)-3-(1-methylpiperidin-4-yl)furo[3,2-b]pyridine-5-carboxamide]: the IC50 is above 40 nM on Pim-3, at most 10 nM on Pim-1 and above 2000 nM on Pim-2.

As for `CC(C)c1cc2nc(C(=O)Nc3cnccc3N3C[C@H](C)C[C@H](N)C3)ccc2s1` [Example 51, N-(4-((3S,5R)-3-Amino-5-methylpiperidin-1-yl)pyridin-3-yl)-2-isopropylthieno[3,2-b]pyridine-5-carboxamide], the concentration for half-maximal inhibition (IC50) on Pim-3 is at most 10 nM; at Pim-1 it was at most 10 nM; at Pim-2, at most 100 nM.

For `C[C@H]1CN(c2ccncc2NC(=O)c2ccc3occ(C4CC4)c3n2)C[C@@H](N)[C@@H]1O` [Example 34, N-(4-((3R,4R,5S)-3-Amino-4-hydroxy-5-methylpiperidin-1-yl)pyridin-3-yl)-3-cyclopropylfuro[3,2-b]pyridine-5-carboxamide], the values for the IC50 on Pim-3, at Pim-1 and on Pim-2 were at most 10 nM, at most 10 nM and at most 100 nM, respectively.

For `CCc1coc2ccc(C(=O)Nc3cnccc3N3C[C@H](C)C[C@H](N)C3)nc12` [Example 20, N-(4-((3S,5R)-3-Amino-5-methylpiperidin-1-yl)pyridin-3-yl)-3-ethylfuro[3,2-b]pyridine-5-carboxamide], the IC50 is at most 10 nM on Pim-3, at most 10 nM on Pim-1 and at most 100 nM on Pim-2.

As for `CC(C)c1cc2nc(C(=O)Nc3cnccc3N3C[C@H](C)C[C@H](N)C3)ccc2o1` [Example 2, N-{4-[(3S,5R)-3-Amino-5-methylpiperidin-1-yl]pyridin-3-yl}-2-isopropylfuro[3,2-b]pyridine-5-carboxamide], the IC50 is at most 10 nM at Pim-3, 10 to 50 nM on Pim-1 and 100 to 1000 nM on Pim-2.

On to `C[C@@H]1C[C@H](N)CN(c2ccncc2NC(=O)c2ccc3occ(C4CC4)c3n2)C1` [Example 35, N-(4-((3S,5R)-3-Amino-5-methylpiperidin-1-yl)pyridin-3-yl)-3-cyclopropylfuro[3,2-b]pyridine-5-carboxamide], for which the concentration for half-maximal inhibition (IC50) is at most 10 nM on Pim-3, at most 10 nM on Pim-1 and at most 100 nM on Pim-2.

For orientation: IC50 means the concentration that inhibits the measured activity by half.
